Here are results for one substance from US10105403B2, “Methods of treating iron deficiency to prevent iron-deficiency anemia by administration of Lactobacillus plantarum” (Probi AB, priority 2005, dated 2018).

The assay concerns Caco-2 cells. Kind of assay: Cellular 55Fe uptake and transfer across Caco-2 monolayers with bacterial suspensions. It is filed as cell-based. The protocol: Caco-2 cells were obtained from the American Type Culture Collection (Rockville, Md.) at passage 17 and used for experiments at passages 20-35. Stock cultures were maintained in Dulbecco's modified […] medium (DMEM) supplemented with 20% (v/v) fetal calf serum (FSC), […] penicillin G, and 100 mg/L streptomycin at 37° C. in a huminified atmosphere of 95% air-5% CO2. The growth medium was changed every second to third day. Cells were split at ˜80% confluence using 0.5 g/L trypsin with 0.5 mmol/L EDTA in Dulbecco's phosphate buffered saline (PBS). […]
Lactobacillus plantarum 299v (DSM9843), (5), Lactobacillus plantarum 299, (1), Lactobacillus plantarum Heal 9 (DSM 15312), (2), Lactobacillus plantarum Heal 19 (DSM15313), (4), Lactobacillus plantarum 299v mutant (AMJ1277), (3) and Lactobacillus reuteri, (6) were cultured in MRS broth at a rotary shaker (37° C., 200 rpm). […] The volume of cell culture corresponding to a certain cell-number was calculated from a predetermined standard curve. […]
Fresh supplemented DMEM was provided to the cells 1 day prior to the uptake and transfer assays. […] After 2 h incubation, the cells were washed four times with ice-cold wash buffer (150 mmol/L NaCl, 10 mmol/L HEPES, 1 mmol/L EDTA, pH7) and homogenized in 0.5M NaOH. ^55Fe transferred to the basolateral chamber or associated with the Caco-2 lysates was measured by liquid scintillation counting. […]

In turn, Lactobacillus reuteri had a Transport % (FeCl3 10 μmol/l in HBSS/HEPES, 55Fe traced, 2 h incubation, 6.7×10^7 cells/ml (Lactobacillus reuteri 3.35×10^7 cells/ml), control without bacteria 0.06) of 0.11%. The “Effect on Fe transport (in words)” value (FeCl3 10 μmol/l, Caco-2 monolayers, compared to neat Fe solution) is “an increase of the transport is seen, but not comparable with the different Lactobacillus plantarum strains”.
